This is an account of results in ChEMBL document CHEMBL1138211, “New benzopyran-based openers of the mitochondrial ATP-sensitive potassium channel with potent anti-ischemic properties” (J Med Chem, 2006).

For test [1], the system named is Rattus norvegicus. The experiment in a line: LDH release in Langendorff perfused Wistar rat heart subjected to ischemia-reperfusion cycles at 40 mg/kg, ip after 120 mins. The conditions noted are these: route intraperitoneal. The class given is functional.
The test system of test [2] is Rattus norvegicus. The experiment in a line: Activity in Langendorff perfused Wistar rat heart subjected to ischemia-reperfusion cycles at 40 mg/kg, ip after 30 mins in presence of 5-hydroxydecanoic acid. The class given is functional. Particulars: route intraperitoneal.
Test [3] concerns Aorta. Description: Vasorelaxation activity on KCl-induced contractile tone in Wistar rat thoracic aortic ring. The class given is functional, tissue-based.
The subject of test [4] is Rattus norvegicus. Description: Ischemia-injured area relative to total area in Langendorff perfused Wistar rat heart subjected to ischemia-reperfusion cycles at 40 mg/kg, ip in presence of 5-hydroxydecanoic acid. The class given is functional. The conditions noted are these: route intraperitoneal.
The test system of test [5] is Rattus norvegicus. The experiment in a line: Activity in Langendorff perfused Wistar rat heart subjected to ischemia-reperfusion cycles at 40 mg/kg, ip after 120 mins in presence of 5-hydroxydecanoic acid. The class given is functional. Particulars: route intraperitoneal.
Test [6] concerns Rattus norvegicus. The experiment in a line: Ischemia-injured area relative to total area in Langendorff perfused Wistar rat heart subjected to ischemia-reperfusion cycles at 40 mg/kg, ip. The class given is functional. Particulars: route intraperitoneal.
The subject of test [7] is Aorta. The experiment in a line: Vasorelaxation activity on KCl-induced contractile tone in Wistar rat thoracic aortic ring at 100 uM. The class given is functional.
In test [8] the test system is Rattus norvegicus. Description: LDH release in Langendorff perfused Wistar rat heart subjected to ischemia-reperfusion cycles at 40 mg/kg, ip after 120 mins in presence of 5-hydroxydecanoic acid. The class given is functional. Particulars: route intraperitoneal.
Test [9] has as its system Rattus norvegicus. The experiment in a line: Activity in Langendorff perfused Wistar rat heart subjected to ischemia-reperfusion cycles at 40 mg/kg, ip after 30 mins. The class given is functional. The conditions noted are these: route intraperitoneal.
Test [10] deals with Rattus norvegicus. Description: Activity in Langendorff perfused Wistar rat heart subjected to ischemia-reperfusion cycles at 40 mg/kg, ip after 120 mins. The class given is functional. The conditions noted are these: route intraperitoneal.
For test [11], the system named is Rattus norvegicus. The experiment in a line: Activity in Langendorff perfused Wistar rat heart subjected to ischemia-reperfusion cycles at 1 mg/kg, ip after 30 mins. The class given is functional. Particulars: route intraperitoneal.
Test [12] has as its system Rattus norvegicus. Description: Activity in Langendorff perfused Wistar rat heart subjected to ischemia-reperfusion cycles at 1 mg/kg, ip after 120 mins. The class given is functional. Particulars: route intraperitoneal.
Test [13] relates to Rattus norvegicus. Description: Decrease in systolic blood pressure in Wistar rat at 1 mg/kg, ip after 60 mins. The class given is functional, organism-based. The arrangement: dose 1 mg/kg. Particulars: Artery.
Test [14] deals with Rattus norvegicus. The experiment in a line: Ischemia-injured area relative to total area in Langendorff perfused Wistar rat heart subjected to ischemia-reperfusion cycles at 1 mg/kg, ip. The class given is functional. Particulars: route intraperitoneal.
In test [15] the test system is Rattus norvegicus. Description: LDH release in Langendorff perfused Wistar rat heart subjected to ischemia-reperfusion cycles at 1 mg/kg, ip after 120 mins in presence of 5-hydroxydecanoic acid. The class given is functional. The conditions noted are these: route intraperitoneal.
Test [16] relates to Rattus norvegicus. The experiment in a line: Activity in Langendorff perfused Wistar rat heart subjected to ischemia-reperfusion cycles at 1 mg/kg, ip after 120 mins in presence of 5-hydroxydecanoic acid. The class given is functional. Particulars: route intraperitoneal.
In test [17] the test system is Rattus norvegicus. The experiment in a line: LDH release in Langendorff perfused Wistar rat heart subjected to ischemia-reperfusion cycles at 1 mg/kg, ip after 120 mins. Particulars: route intraperitoneal. The class given is functional.
In test [18] the test system is Rattus norvegicus. Description: Activity in Langendorff perfused Wistar rat heart subjected to ischemia-reperfusion cycles at 1 mg/kg, ip after 30 mins in presence of 5-hydroxydecanoic acid. Particulars: route intraperitoneal. The class given is functional.
The subject of test [19] is Rattus norvegicus. The experiment in a line: Ischemia-injured area relative to total area in Langendorff perfused Wistar rat heart subjected to ischemia-reperfusion cycles at 1 mg/kg, ip in presence of 5-hydroxydecanoic acid. The class given is functional. Particulars: route intraperitoneal.

Calls of active or inactive are those of the source. No cut-off for these calls is given here.

In the case of `CC1(C)CC2(CN(Cc3ccc(NS(C)(=O)=O)cc3)C(=O)CO2)c2cc(Br)ccc2O1` (racemic), the LDH release in [1] came out at 3 U/g. Besides, the Activity in test [2] was 52%; in test [4], 47%; in test [5], 39%; in test [6] it was 13%; in test [8], 11.7 U/g; in [9], 75%. This compound returned an Activity in test [10] of 57%. Further, half-maximal inhibition in test [3] (IC50) was put at 7.24 µM. The compound further had an Emax at 100 µM in [7] of 87%.

With `CC(=O)Nc1ccc(CN2CC3(CC(C)(C)Oc4ccc(Br)cc43)OCC2=O)cc1` (racemic), the LDH release in [1] worked out at 12.4 U/g. The compound also showed an IC50 in test [3] of 15.1 µM. The Activity in test [6] was determined as 58%; in test [9], 2%; in test [10] it was 3%. This compound also came in with an Emax at 100 µM in test [7] of 70%.

Take `CC(=O)Nc1ccc(CN2CCOC3(C2)CC(C)(C)Oc2ccc(Br)cc23)cc1` (racemic): the LDH release in test [1] was 11.3 U/g. This compound also gave an IC50 in test [3] of 2.4 µM. For the same compound, the Activity worked out at 61% in test [6], 15% in test [9] and 26% in test [10]. The compound also registered an Emax at 100 µM in [7] of 99%.

On to `CC1(C)CC2(CN(Cc3ccc(NS(C)(=O)=O)cc3)CCO2)c2cc(Br)ccc2O1` (racemic), for which the LDH release in test [1] was determined as 6.9 U/g. Also, the Activity in test [2] turned out to be 17%; in test [4] it was 40%; in [5] it was 33%; in [6], 14%; in test [8], 13.4 U/g; in test [9], 89%. In test [10], the Activity stood at 77%. The same compound displayed an Emax at 100 µM in test [7] of 98%.

`CC(=O)Nc1ccc(CN2CC3(CC(C)(C)Oc4ccccc43)OCC2=O)cc1` (racemic) came in with an LDH release in [1] of 6 U/g. Moreover, the Activity turned out to be 16% in test [2]; 49% in [4]; 27% in test [5]; 20% in test [6]; 13.5 U/g in test [8]; 79% in [9]. This compound gave an Activity in test [10] of 62%. 25.1 µM corresponded to half-maximal inhibition in test [3] (IC50). Further, in test [7], the Emax at 100 µM was 57%.

As to `CC1(C)Oc2ccc(C#N)cc2C(N2CCCC2=O)C1O` (racemic) [CROMAKALIM], the Activity in test [11] was found to be 99%; in test [12], 84%; in test [14] it was 25%; in test [15], 8.6%; in [16], 18%; in test [17], 5.5%. Moreover, the figures for the Activity in test [18] and in [19] were 11% and 38%, respectively. The outcome in test [13] was Active. The compound further gave an IC50 in test [3] of 0.0977 µM. The compound further yielded an Emax at 100 µM in test [7] of 98%.

As to `CC(=O)Nc1ccc(CN2CCOC3(C2)CC(C)(C)Oc2ccccc23)cc1` (racemic), in [1], the LDH release is 16 U/g. Also, it took 13.2 µM to reach half-maximal inhibition in test [3] (IC50). For the same compound, the Activity amounted to 50% in test [6], 12% in test [9] and 17% in test [10]. The same compound showed an Emax at 100 µM in test [7] of 77%.

The compound `CC1=Nc2ccc(Cl)cc2S(=O)(=O)N1` [DIAZOXIDE] returned an LDH release in test [1] of 5.7 U/g. Further, the Activity in test [2] came out at 13%; in test [4] it was 52%; in test [5], 6%; in test [6] it was 22%; in test [8], 14.5%; in test [9], 80%. In test [10], this compound yielded an Activity of 47%. The compound further gave an IC50 in [3] of 19.1 µM. The compound also displayed an Emax at 100 µM in [7] of 97%.
